Data: article PMC8073907, “Peptide targeting of lysophosphatidylinositol-sensing GPR55 for osteoclastogenesis tuning” (Cell Communication and Signaling : CCS, 2021)

Experiments:
[1] = tested on: endogenous GPR55 (HeLa); experiment: LPI-induced ERK/p38 phosphorylation in shCTRL-HeLa clones (Western blot); type: cell-based, human; details: for inhibition of LPI stimulation of both ERK2 and p38 phosphorylation at 5 min / inhibition of LPI-induced stimulation of ERK1/2: 30 µM ML-191, 10 µM CBD or 10 µM O1918
Protocol: For stable interference of GPR55, HeLa cells were plated at 1.5 × 10^5 cells/well in six-well plates in growth medium without antibiotics, and 24 h later, the cells were transfected with 1.7 µg/well OmicsLink short hairpin (sh)RNA expression clone CSHCTR001-CU6 (shCTRL) or clone HSH022476-3-CU6 (shGPR55) from GeneCopoeia (Rockville, MD, USA), using Lipofectamine 2000, according the manufacturer instructions. Forty-eight hours after transfection, HeLa clones stably expressing shRNAs were selected in growth medium containing 0.3 µg/mL puromycin. The efficiency of interference was monitored by real-time PCR using the primers listed in the Additional file 1: Table S1. HPRT1 was followed as a housekeeping gene.
(§1) Twenty-four hours after transfection (HEK293T, HeLa cells or clones) or 72 h after interference (RAW264.7 cells), the cells were washed twice with HBSS^++, serum deprived (HEK293T cells for 4 h in DMEM; HeLa cells and clones for 2 h in MEM plus 2 mM glutamine and 25 mM HEPES; RAW264.7 cells for 2 h in DMEM), washed once again with HBSS^++, incubated in stimulation buffer (HBSS^++ with 10 mM HEPES, 0.4% faf-BSA for HEK293T cells; HBSS^++ with 25 mM HEPES and 0.01% faf-BSA for HeLa cells, clones, and RAW264.7 cells) in the absence or presence of stimuli, at 37 °C for the indicated times. Incubations were terminated by washing the cells twice with cold HBSS^++, and the analyses were performed as reported below.
Cell lysates were obtained by scraping the cells into phospho-lysis buffer: 50 mM Tris–HCl, pH 7.5, 100 mM NaCl, 5 mM EDTA, 1% Triton X-100, 50 mM NaF, 40 mM β-glycerophosphate, 200 µM sodium orthovanadate, plus protease and phosphatase inhibitors (Roche). Following gentle homogenisation by 20 passages through a 26-gauge needle, the lysates were centrifuged at 10,000×g for 5 min at 4 °C, and the supernatants were collected.
Protein lysates were subjected to SDS-PAGE, and after electrophoresis, the proteins were transferred to a nitrocellulose membrane (PerkinElmer Life Science, Boston, MA, USA). For immunoblotting, the membranes were blocked with 5% non-fat milk in TBS (10 mM Tris–HCl, pH 7.4, 10 mM NaCl) plus 0.1% Tween-20 (T-TBS) for 30 min at room temperature, and incubated with primary antibodies in T-TBS plus 3% BSA for 2 h at room temperature, or overnight at 4 °C. The membranes were washed twice in T-TBS for 7 min, and then incubated with secondary antibodies conjugated to horseradish peroxidase (1:5,000) (Calbiochem, San Diego, CA, USA) in T-TBS with 5% non-fat milk for 30 min at room temperature. The membranes were then washed twice with T-TBS and once with TBS for 5 min, and the signals were detected by ECL (Amersham Pharmacia, Piscataway, NJ, USA). The rabbit anti-phospho AKT (Ser473), anti-phospho p38 (Thr180/Tyr182), anti-phospho p42/44 (Thr202/Tyr204), anti-p38 (all at dilution 1:1000) were from Cell Signaling Technology (Danvers, MA, USA). The rabbit anti-AKT (B-1), and anti-p42/44 (ERK1; K-23) were from Santa Cruz Biotechnology.

[2] = tested on: RAW264.7 cells; experiment: RANKL-induced transcription of osteoclastogenesis markers in RAW264.7 cells (real-time PCR); type: cell-based, murine; details: 72 h; for effect on RANKL-induced Mmp-9 mRNA: 0.5 µM CBD
Protocol: (§2) Total RNA was extracted using RNeasy isolation kits, cDNAs were obtained using QuantiTect Reverse Transcription kits, and real-time PCRs were performed with QuantiTect SYBR Green PCR kits (all from Qiagen, Hilden, Germany), according to the manufacturer instructions. The primers used for the real-time PCRs and their annealing temperatures are listed in the Additional file 1: Table S1. Human hypoxanthine phosphoribosyltransferase 1 (HPRT1) or murine β2-microglobulin were followed as housekeeping genes. The real-time PCR programme consisted of an initial 15 min at 95 °C, and then 45 cycles as follows: 94 °C for 15 s, annealing temperature of each primer for 30 s, and 72 °C for 30 s. The real-time PCR machine used was a LightCycler 480 Instrument II (Roche, Indianapolis, IN, USA).
For transient interference of Gpr55, RAW264.7 cells were plated at 6 × 10^5 cells/well in six-well plates in growth medium without antibiotics. Twenty-four hours later, the cells were transfected with 250 pmol/well non-targeting small-interfering (si)RNAs (si-NT; siGENOME siRNA Pool #2; D-001206-14; Dharmacon, Chicago, IL, USA) or Gpr55-specific siRNAs (si-GPR55; siGENOME mouse GPR55 SMART pool; M-043590-01; Dharmacon) using Lipofectamine LTX and Plus Reagent, according to the manufacturer instructions. Twenty-four hours later, the cells were plated for the different assays or for RNA extraction. The efficiency of interference was monitored by real-time PCR after 72 h of interference, using the primers listed in the Additional file 1: Table S1. β2-microglobulin was followed as a housekeeping gene.
(§3) For the osteoclastogenesis in-vitro assay, RAW264.7 cells were plated in differentiation medium (α-MEM with 10% heat-inactivated FBS, 2 mM L-glutamine, 100 U/mL penicillin, and 100 ug/mL streptomycin) at a density of 5 × 10^3 cells/well in 24-well plates on coverslips for morphological analysis, or at 2 × 10^4 cells/well in six-well plates for RNA extraction. Twenty-four hours later and every 48 h, the medium was replaced and the cells were treated with 15–30 ng/mL RANKL with DMSO and/or PBS as carriers, or with GPR55 antagonists/ agonists (0.5 µM ML-191, 30 µM O1918, 0.5 µM CBD, 0.5 μM CID16020046 1 µM soybean LPI, 1 μM ML-184), or with the peptides (150 nM peptide-P1; or the irrelevant peptide, Irr_P). Twenty-four hours after the last addition, the cells were fixed with 4% paraformaldehyde for morphological analyses or harvested for RNA extraction (see above).

[3] = tested on: Gpr55 mRNA in RAW264.7 cells; experiment: Modulation of Gpr55 mRNA levels by receptor ligands in RANKL-treated RAW264.7 cells; type: cell-based, murine; details: 72 h; for Gpr55 mRNA levels (fold non-differentiated): alone or + 1 μM soybean LPI, 0.5 μM ML-191, 0.5 μM CBD or 30 μM O1918, means ± SEM of at least three independent experiments
Protocol: as §2, §3

[4] = tested on: HA-GPR55 in HEK293T cells; experiment: LPI-induced ERK1/2 activation in GPR55-transfected HEK293T cells; type: cell-based, human; details: soybean or synthetic LPI, 100 nM to 10 µM, 3–30 min; different transfection methods
Source text: The construct of haemagglutinin (HA)-tagged human GPR55 in pcDNA3 (HA-GPR55) was a gift from Prof. K. Mackie, Indiana University, Bloomington, IN, USA [39], while the construct ss-3 × HA-GPR55 in pcDNA3.1 (ssGPR55) with a triple HA tag at the N-terminus and an optimised signal sequence (ss, derived from amino acids 1–33 of the human growth hormone: […]) for efficient surface expression was from Prof. A. Irving, Dundee University, UK [40]. For both constructs, mutations were introduced by site-directed mutagenesis using QuickChange kits (Stratagene, La Jolla, CA, USA), according to the manufacturer instructions. The primers for the K80A mutation were 5′-[…]-3′ and 5′-[…]-3′ (Tm, 70.6 °C), and for Q87A were 5′-[…]-3′ and 5′-[…]-3′ (Tm, 73.1 °C).
For GPR55 overexpression, HEK293T cells were plated in their growth medium without antibiotics at 2.6 × 10^5 cells/well in 12-well plates, and 24 h later, the cells were transfected with 1 µg cDNA/well using Lipofectamine 2000, according to the manufacturer instructions. The pcDNA3 empty vector or that coding for human HA-GPR55 wild-type or its mutants HA-GPR55-K80A and HA-GPR55-Q87A were used.
as §1, with “Incubations were terminated by washing the cells twice with cold HBSS^++, and the analyses were performed as reported below.” left out
Protein lysates were subjected to SDS-PAGE, and after electrophoresis, the proteins were transferred to a nitrocellulose membrane (PerkinElmer Life Science, Boston, MA, USA). […] The membranes were then washed twice with T-TBS and once with TBS for 5 min, and the signals were detected by ECL (Amersham Pharmacia, Piscataway, NJ, USA). […]

[5] = tested on: osteoclasts derived from RAW264.7 cells; experiment: Osteoclast functional assay (bone resorption on bovine cortical bone slices); type: cell-based, murine; details: 15 ng/mL RANKL, 7 days; at least three independent experiments
Protocol: RAW264.7 cells were plated in differentiation medium at a density of 1250 cells/100 µL on 0.2-mm-thick bovine cortical bone slices (BoneSlices.com, Jelling, Denmark) in 96-well plates. Six hours later, 100 µL differentiation medium with RANKL (15 ng/mL, final concentration) was added, in the presence of a carrier or in combination with the GPR55 modulators. The media with the different compounds were replaced every 48 h, for a total of 7 days. At the end of this period, the cells were detached with a 10% bleach solution, and the resorption excavations were visualised by using Toluidine Blue staining (Sigma-Aldrich). Images of the resorption areas were obtained under the microscope (SW380T; Swift Optical Instruments, Inc., TX, USA) using the 10 × objective, and acquired with a digital camera (Swiftcam SC1003; Swift Optical Instruments, Inc.). The total eroded surface underwent blinded quantification using ImageJ (NIH), and was subdivided into pit and trench surfaces. Pits were characterised as round excavations with well-defined edges where the ratio between length and width was < 2.0. Trenches were defined as elongated excavations with well-defined edges whose length was at least twice the wide, and with clear signs of continued resorption. The prevalence of trenches was calculated as a proportion (%) of the trench surface relative to the total eroded surface.

[6] = 15–30 ng/mL RANKL, 0.5 µM ML-191, 0.5 µM CBD, 30 µM O1918, four independent experiments
[7] = 10 µM soybean LPI, 10 min, 10 µM CBD or 30 µM ML-191, relative to CBD or ML-191 basal level
[8] = 30 ng/mL RANKL, mean ± range of two independent experiments

Molecule: C=C(C)[C@@H]1CCC(C)=C[C@H]1c1c(OC)cc(C)cc1OC [O1918]
- inhibition of LPI stimulation of both ERK2 and p38 phosphorylation at 5 min ([1]; 10 µM soybean LPI): inhibited LPI stimulation of both ERK2 and p38 phosphorylation at 5 min
- inhibition of LPI-induced stimulation of ERK1/2 ([1]; 10 µM soybean LPI): abolished
- basal ERK2 activation level (without LPI) ([1]; 30 µM ML-191 or 10 µM O1918): significantly increased basal activation levels
- effect on RANKL-induced Mmp-9 mRNA ([2]; 15–30 ng/mL RANKL, 30 µM O1918): not affected
- effect on RANKL-induced Ctr mRNA [2, 6]: not affected
- reduction of RANKL-induced Nfatc1 mRNA [2, 6]: 40%
- reduction of RANKL-induced Trap mRNA [2, 6]: 40%
- effect on RANKL-induced Cathepsin-k mRNA ([2]; 15–30 ng/mL RANKL, 30 µM O1918): not affected
- Gpr55 mRNA levels (fold non-differentiated) ([3]; 30 ng/mL RANKL): 15.8 ± 3.1 fold non-differentiated
- effect on RANKL-stimulated Gpr55 mRNA levels ([3]; 30 μM O1918): did not show any effects

Molecule: C=C(C)[C@@H]1CCC(C)=C[C@H]1c1c(O)cc(CCCCC)cc1O [CBD, Cannabidiol]
- inhibition of LPI stimulation of both ERK2 and p38 phosphorylation at 5 min ([1]; 10 µM soybean LPI): inhibited LPI stimulation of both ERK2 and p38 phosphorylation at 5 min
- inhibition of LPI-induced stimulation of ERK1/2 ([1]; 10 µM soybean LPI): strongly inhibited
- ERK2 phosphorylation upon LPI stimulation in presence of antagonist [1, 7]: 3.3 -fold the antagonist basal lev
- p38 phosphorylation upon LPI stimulation in presence of antagonist [1, 7]: 1.5 -fold the antagonist basal lev
- effect on RANKL-induced Mmp-9 mRNA ([2]; 15–30 ng/mL RANKL, 30 µM O1918): not affected
- effect on RANKL-induced Ctr mRNA [2, 6]: not affected
- reduction of RANKL-induced Cathepsin-k mRNA [2, 6]: 44%
- reduction of RANKL-induced Nfatc1 mRNA [2, 6]: 40%
- reduction of RANKL-induced Trap mRNA [2, 6]: 50%
- Gpr55 mRNA levels (fold non-differentiated) ([3]; 30 ng/mL RANKL): 27.7 ± 0.5 fold non-differentiated
- further enhancement of RANKL-stimulated Gpr55 mRNA levels ([3]; 0.5 μM ML-191, 0.5 μM CBD, 1 μM soybean LPI, versus RANKL alone): 0.7 -fold

Molecule: L-α-lysophosphatidylinositol sodium salt from soybean [soybean LPI]
- ERK1/2 activation in GPR55-transfected compared to empty-vector-transfected cells [4]: inconsistent ERK1/2 activation
- Gpr55 mRNA levels (fold non-differentiated) ([3]; 30 ng/mL RANKL): 24.5 ± 2.1 fold non-differentiated

Molecule: Cc1cccc(N2CCN(C(=O)c3cc(S(=O)(=O)N(C)C)ccc3N3CCCC3)CC2)c1C [ML-184]
- RANKL-induced transcription of Ctr, si-NT versus si-GPR55 cells ([2]; RANKL 15 ng/mL, 1 µM soybean LPI or 1 µM ML-184): similarly increased RANKL-induced transcription of Ctr only in precursor cells treated with non-targeting siRNAs, and not in those silenced for GPR55

B1: RANKL: Receptor-activator of nuclear factor kappa-β ligand, Peprotech (protein, UniProt O14788 140-317, looked up)
Tumor necrosis factor ligand …: IRAEKAMVDGSWLDLAKRSKLEAQPFAHLTINATDIPSGSHKVSLSSWYHDRGWAKISNMTFSNGKLIVNQDGFYYLYANICFRHHETSGDLATEYLQLMVYVTKTSIKIPSSHTLMKGGSTKYWSGNSEFHFYSINVGGFFKLRSGEEISIEVSNPSLLDPDQDATYFGAFKVRDID
- Cathepsin-k mRNA increase versus undifferentiated cells [2, 8]: 468.5 (±24.3) -fold
- Mmp-9 mRNA increase versus undifferentiated cells [2, 8]: 673.3 (±4.7) -fold
- Nfatc1 mRNA increase versus undifferentiated cells [2, 8]: 11.9 (±2.2) -fold
- Trap mRNA increase versus undifferentiated cells [2, 8]: 188.8 (±57.6) -fold
- Gpr55 mRNA levels (fold non-differentiated) ([3]; 30 ng/mL RANKL): 16.1 ± 1.6 fold non-differentiated
- Gpr55 mRNA increase ([3]; 30 ng/mL RANKL, three independent experiments): 14 -fold
- trench surface relative to total eroded surface [5]: 42 ± 8 % of total eroded surface
